Assays:
[1] = tested on: aberrant crypt foci and intestinal polyps; settings: mouse disease model; Mutoh et al. 2002; cited from earlier work
[2] = molecular target: T1, human Prostanoid EP4 Receptor (EP4) (Homo sapiens, UniProt P35408); assay: Prostanoid EP4 binding assay (3H-prostaglandin E2 displacement, cell membranes); settings: HEK293 cell membranes with human EP4, 3H-prostaglandin E2, 24° C.
T1 construct: expressed in transfected cells; host or cells: HEK293 (G418 selection); membranes prepared by differential centrifugation
Procedure: HEK293 cells transfected with human Prostanoid EP4 Receptor (EP4) are maintained in DMEM supplemented with L-Glutamine, 10% FBS and 300 μg/ml G418. Cells are harvested and membranes prepared by differential centrifugation, following lysis of the cells in the presence of protease inhibitors, for use in the receptor binding assay. EP4 binding assay is performed in 50 mM HEPES pH7.4, 5 mM MgCl2, 1 mM CaCl2) and 0.2% BSA. Testing compounds are diluted with DMSO to make 8-point 4-fold serial dilution. Cell membrane homogenates are incubated at 24° C. with ^3H-prostaglandin E2 in the absence or presence of the testing compound in assay buffer. Nonspecific binding (Low control: LC) and total binding (High control: HC) are determined in the presence or absence of saturated cold ligand Prostaglandin E2 (PGE2). Specific binding is calculated by subtracting nonspecific binding from total binding. When binding assays are completed, the reaction mixture is filtered rapidly under vacuum through glass fiber filters (GF/C, Packard) presoaked with 0.5% BSA for at least 0.5 hour at room temperature and then washed for 4 times with cold wash buffer (50 mM HEPES pH7.4, 500 mM NaCl, 0.1% BSA) using a 96-sample Perkin Elmer Filtermate Harvester (Unifilter, Packard). The filters are dried for 1 hour at 50 degrees then counted for radioactivity in a scintillation counter using Perkin Elmer Microscint 20 cocktail. ^3H trapped on filter is counted using Perkin Elmer MicroBeta2 Reader. Inhibition is calculated using following equation: % Inhibition=(1−(Assay well−Average_LC)/(Average_HC−Average_LC))×100%. The results are expressed as a percent inhibition of the control radioligand specific binding. Data are analyzed and IC50 is calculated using GraphPad Prism 5 and the model “log(inhibitor) vs. response—Variable slope”. The binding affinity of the compounds is determined by using the Cheng and Prusoff equation Ki=IC50/(1+[radioligand]/Kd).

[3] = molecular target: T1, human Prostanoid EP4 Receptor (EP4); assay: Prostanoid EP4 FLIPR assay (calcium flux, PGE2 addition); assay type: cell-based; settings: HEK293 cells transfected with human EP4, Fluo-4 calcium dye
Procedure: (§1) HEK293 cells transfected with human Prostanoid EP4 Receptor (EP4) or CHO cells transfected with human Prostanoid EP2 Receptor (EP2) are maintained in DMEM supplemented with L-Glutamine, 10% FBS and 300 μg/ml G418. Cells are plated at 20,000 cells/well in black 384-well Poly-D-Lysine protein coating plate and incubated at 37° C., 5% CO2 for 24 h. Prior to the assay, calcium-sensitive dye Fluo-4 Direct™ (Molecular Devices) is reconstituted according to manufacturer instructions. The reconstituted dye was diluted in assay buffer (1× HBSS, 20 mM HEPES, and 2.5 mM Probenicid, pH 7.4). Growth media is removed and 20 μl of this diluted dye is added to each well at a final concentration of 2 μM. Plates are incubated for 50 min at 37° C. 5% C02 and 10 min at RT after dye addition. Testing compounds are diluted with DMSO to make 10-point 4-fold serial dilution. After the pre-treatment incubation, fluorescence intensity is measured on a FlexStation II fluorometric imaging plate reader (Molecular Devices). Relative fluorescence units (RFU) are measured before (20 readings) and after (40 readings) the PGE2 addition for a total 60 sec read time (Excitation=485 nm, Emission=525 nm). Data are analyzed and IC50 is calculated using GraphPad Prism 5 and the model “log(inhibitor) vs. response—Variable slope”.
(§2) Illustrative data for representative compounds are described in Table 2.

[4] = molecular target: T2, human Prostanoid EP2 Receptor (EP2) (Homo sapiens, UniProt P43116); assay: Prostanoid EP2 FLIPR assay (calcium flux, PGE2 addition); assay type: cell-based; settings: CHO cells transfected with human EP2, Fluo-4 calcium dye
T2 construct: expressed in transfected cells; host or cells: CHO (G418 selection)
Procedure: as §1, §2

[5] = tested on: human inflammatory breast cancer cells; settings: Robertson et al. 2008; cited from earlier work
[6] = tested on: castration-resistant prostate cancer; settings: mouse xenograft disease model; Terada et al. 2010; cited from earlier work
[7] = tested on: murine mammary tumour cells; settings: mouse, in vivo; cited from earlier work
human NSCLC = settings: in vitro; cited from earlier work

T2 sequence (P43116 whole entry): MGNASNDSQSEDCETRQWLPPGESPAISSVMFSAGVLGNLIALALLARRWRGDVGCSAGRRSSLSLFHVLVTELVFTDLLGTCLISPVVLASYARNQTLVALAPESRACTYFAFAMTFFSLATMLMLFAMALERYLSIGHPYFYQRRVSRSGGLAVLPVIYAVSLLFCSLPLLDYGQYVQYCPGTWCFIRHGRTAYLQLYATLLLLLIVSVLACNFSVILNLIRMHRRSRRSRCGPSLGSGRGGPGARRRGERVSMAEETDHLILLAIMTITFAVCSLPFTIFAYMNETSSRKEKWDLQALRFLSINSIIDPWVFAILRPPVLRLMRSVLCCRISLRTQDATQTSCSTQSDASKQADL
T1 sequence (P35408 whole entry): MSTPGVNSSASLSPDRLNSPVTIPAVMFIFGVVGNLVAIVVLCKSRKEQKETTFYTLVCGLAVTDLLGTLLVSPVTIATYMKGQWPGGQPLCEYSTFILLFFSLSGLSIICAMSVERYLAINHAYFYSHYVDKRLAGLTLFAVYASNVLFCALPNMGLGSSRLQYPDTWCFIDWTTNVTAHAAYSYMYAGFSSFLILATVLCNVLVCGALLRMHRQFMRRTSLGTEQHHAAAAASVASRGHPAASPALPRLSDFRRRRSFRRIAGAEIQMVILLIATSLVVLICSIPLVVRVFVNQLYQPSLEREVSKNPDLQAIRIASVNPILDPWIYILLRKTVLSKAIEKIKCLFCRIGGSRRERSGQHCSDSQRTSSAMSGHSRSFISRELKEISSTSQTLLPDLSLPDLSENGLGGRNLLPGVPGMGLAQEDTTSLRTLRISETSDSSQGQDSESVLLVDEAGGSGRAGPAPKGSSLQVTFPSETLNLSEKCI

CC(C(=O)Nc1ccccc1Cc1ccccc1C(=O)O)c1cccc2ccccc12 (stereo not drawn) [ONO-AE2-227]
formation of aberrant crypt foci and intestinal polyps [1]: reduced the formation of aberrant crypt foci and intestinal polyps

C[C@H](NC(=O)c1cnn2cccc(Cc3ccc(C(F)(F)F)cc3)c12)c1ccc(C(=O)O)cc1 [Compound 1, 4-[(1S)-1-[[4-[[4-(trifluoromethyl)phenyl]methyl]pyrazolo[1,5-a]pyridine-3-carbonyl]amino]ethyl]benzoic acid]
Ki [2]: < 100 nM | IC50 [3]: < 100 nM | IC50 [4]: > 1000 nM

O=C(N[C@H]1CC2(C1)C[C@H](C(=O)O)C2)c1cnn2cccc(Cc3ccc(C(F)(F)F)cc3)c12 (single isomer, unassigned) [Compound 14B, trans-2-[[4-[[4-(trifluoromethyl)phenyl]methyl]pyrazolo[1,5-a]pyridine-3-carbonyl]amino]spiro[3.3]heptane-6-carboxylic acid]
Ki [2]: < 100 nM | IC50 [3]: < 100 nM | IC50 [4]: > 1000 nM

O=C(N[C@H]1CC2(C1)C[C@H](C(=O)O)C2)c1cnn2cccc(Cc3ccc(C(F)(F)F)cc3)c12 (single isomer, unassigned) [Compound 14A, cis-6-[[4-[[4-(trifluoromethyl)phenyl]methyl]pyrazolo[1,5-a]pyridine-3-carbonyl]amino]spiro[3.3]heptane-2-carboxylic acid]
Ki [2]: 100 to 499 nM | IC50 [3]: 100 to 499 nM | IC50 [4]: > 1000 nM

C[C@H](NC(=O)c1cnn2cccc(Cc3cccc(C(F)(F)F)c3)c12)c1ccc(C(=O)O)cc1 [Compound 3, 4-[(1S)-1-[[4-[[3-(trifluoromethyl)phenyl]methyl]pyrazolo[1,5-a]pyridine-3-carbonyl]amino]ethyl]benzoic acid]
Ki [2]: < 100 nM | IC50 [3]: < 100 nM | IC50 [4]: > 1000 nM

O=C(NC1CC2(C1)CC(C(=O)O)C2)c1cnn2cccc(Cc3cccc(C(F)(F)F)c3)c12 (stereo not drawn) [Compound 4, 2-[[4-[[3-(trifluoromethyl)phenyl]methyl]pyrazolo[1,5-a]pyridine-3-carbonyl]amino]spiro[3.3]heptane-6-carboxylic acid]
Ki [2]: < 100 nM | IC50 [3]: < 100 nM | IC50 [4]: > 1000 nM

O=C(NC1CC2(C1)CC(C(=O)O)C2)c1cnn2cccc(Cc3ccc(C(F)(F)F)cc3)c12 (stereo not drawn) [Compound 2, 2-[[4-[[4-(trifluoromethyl)phenyl]methyl]pyrazolo[1,5-a]pyridine-3-carbonyl]amino]spiro[3.3]heptane-6-carboxylic acid]
Ki [2]: < 100 nM | IC50 [3]: < 100 nM | IC50 [4]: > 1000 nM

C[C@H](NC(=O)c1cnn2cccc(Cc3cc4ccccc4cn3)c12)c1ccc(C(=O)O)cc1 [Compound 12, 4-[(1S)-1-[[4-(3-isoquinolylmethyl)pyrazolo[1,5-a]pyridine-3-carbonyl]amino]ethyl]benzoic acid]
Ki [2]: < 100 nM | IC50 [3]: < 100 nM | IC50 [4]: > 1000 nM

O=C(NC1CC2(C1)CC(C(=O)O)C2)c1n[nH]c2cccc(Cc3ccc(C(F)(F)F)cc3)c12 (stereo not drawn) [Compound 8, 2-[[4-[[4-(trifluoromethyl)phenyl]methyl]-1H-indazole-3-carbonyl]amino]spiro[3.3]heptane-6-carboxylic acid]
Ki [2]: < 100 nM | IC50 [3]: < 100 nM | IC50 [4]: > 1000 nM

CCOc1c2c(c(OCC)c3ccccc13)C(=O)N(c1ccc(CC(=O)NS(=O)(=O)c3ccccc3)cc1)C2 [GW-627368X]
proliferation and invasion of human inflammatory breast cancer cells [5]: selectively inhibited both proliferation and invasion

CC(C(=O)Nc1cc(C#N)ccc1CCCC(=O)O)c1ccc(F)c2ccccc12 (stereo not drawn) [ONO-AE3-208]
castration-resistant prostate cancer progression [6]: suppressed castration-resistant prostate cancer progression | metastasis of murine mammary tumour cells [7]: reduced metastasis

CCn1nc2cccc(Cc3ccc(C(F)(F)F)cc3)c2c1C(=O)N[C@@H](C)c1ccc(C(=O)O)cc1 [Compound 10, 4-[(1S)-1-[[2-ethyl-4-[[4-(trifluoromethyl)phenyl]methyl]indazole-3-carbonyl]amino]ethyl]benzoic acid]
Ki [2]: 100 to 499 nM | IC50 [3]: < 100 nM | IC50 [4]: > 1000 nM

CCn1nc(C(=O)N[C@@H](C)c2ccc(C(=O)O)cc2)c2c(Cc3ccc(C(F)(F)F)cc3)cccc21 [Compound 9, 4-[(1S)-1-[[1-ethyl-4-[[4-(trifluoromethyl)phenyl]methyl]indazole-3-carbonyl]amino]ethyl]benzoic acid]
Ki [2]: < 100 nM | IC50 [3]: < 100 nM | IC50 [4]: > 1000 nM

O=C(O)CC12CC(NC(=O)c3cnn4cccc(Cc5ccc(C(F)(F)F)cc5)c34)(C1)C2 [Compound 15, 2-[3-[[4-[[4-(trifluoromethyl)phenyl]methyl]pyrazolo[1,5-a]pyridine-3-carbonyl]amino]-1-bicyclo[1.1.1]pentanyl]acetic acid]
Ki [2]: < 100 nM | IC50 [3]: < 100 nM | IC50 [4]: > 1000 nM

O=C(O)CC/C=C\CC[C@H]1[C@H](N2CCOCC2)C(=O)C[C@H]1OCc1ccc(-c2ccccc2)cc1 [AH-23848]
tumorigenic effects of PGE2 on human NSCLC growth (human NSCLC): successfully inhibited | metastasis of murine mammary tumour cells [7]: reduced metastasis

C[C@H](NC(=O)c1n[nH]c2cccc(Cc3ccc(C(F)(F)F)cc3)c12)c1ccc(C(=O)O)cc1 [Compound 7, 4-[(1S)-1-[[4-[[4-(trifluoromethyl)phenyl]methyl]-1H-indazole-3-carbonyl]amino]ethyl]benzoic acid]
Ki [2]: < 100 nM | IC50 [3]: < 100 nM | IC50 [4]: > 1000 nM

From US20220324803A1 (Teon Therapeutics, Inc., priority 2019, published 2022)
